Where “and” joins values, the source holds several entries; their conditions need not be identical. Equal entries are not always repeated. Inconclusive results and toxic doses are left out. How the source made its calls: active means survival T/C of 150% or more; inactive means T/C below 125% in these data.
Test system: CD2F1 mice, L1210 leukemia ip, survival T/C
Experiment: NCI In Vivo Anticancer Drug Screen. Data for tumor model L1210 Leukemia (intraperitoneal) in CD2F1 (CDF1) mice
Details: higher = longer survival
In short: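 Transplantable tumor in mice; compound-treated vs vehicle-treated groups. Read-out = treated/control ratio of the measured endpoint.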

[1] = endpoint: mean survival time, dose: 100.0 mg/kg/injection, schedule: Q04DX003 (ip), vehicle: saline with Tween-80
[2] = endpoint: mean survival time, dose: 50.0 mg/kg/injection, schedule: Q01DX009 (ip), vehicle: saline with Tween-80
[3] = endpoint: mean survival time, dose: 100.0 mg/kg/injection, schedule: Q01DX009 (ip), vehicle: saline with Tween-80
[4] = endpoint: mean survival time, dose: 200.0 mg/kg/injection, schedule: Q01DX009 (ip), vehicle: saline with Tween-80
[5] = endpoint: mean survival time, dose: 200.0 mg/kg/injection, schedule: Q04DX003 (ip), vehicle: saline with Tween-80
[6] = endpoint: mean survival time, dose: 400.0 mg/kg/injection, schedule: Q04DX003 (ip), vehicle: saline with Tween-80
[7] = endpoint: mean survival time, dose: 400.0 mg/kg/injection, schedule: Q01DX009 (ip), vehicle: saline with Tween-80

Measured: T/C

COc1ccc(/C(C)=N/N=C(\C)c2ccc(OC)cc2)cc1
inactive: endpoint: mean survival time, dose: 25.0 mg/kg/injection, schedule: Q04DX003 (ip), vehicle: saline with Tween-80 105 % of control | endpoint: mean survival time, dose: 50.0 mg/kg/injection, schedule: Q04DX003 (ip), vehicle: saline with Tween-80 102 % of control | [1] 102 % of control

NCCc1ccc(O)c(O)c1
inactive: endpoint: mean survival time, dose: 25.0 mg/kg/injection, schedule: Q01DX009 (ip), vehicle: saline 97 % of control | endpoint: mean survival time, dose: 50.0 mg/kg/injection, schedule: Q01DX009 (ip), vehicle: saline 109 % of control | endpoint: mean survival time, dose: 100.0 mg/kg/injection, schedule: Q01DX009 (ip), vehicle: saline 122 % of control and 109 % of control | endpoint: mean survival time, dose: 200.0 mg/kg/injection, schedule: Q01DX009 (ip), vehicle: saline 112 % of control | endpoint: mean survival time, dose: 400.0 mg/kg/injection, schedule: Q01DX009 (ip), vehicle: saline 119 % of control | endpoint: median survival time, dose: 0.1 mg/kg/injection, schedule: Q01DX009 (ip), vehicle: saline 98 % of control and 107 % of control | endpoint: median survival time, dose: 0.5 mg/kg/injection, schedule: Q01DX009 (ip), vehicle: saline 101 % of control and 107 % of control | endpoint: median survival time, dose: 1.0 mg/kg/injection, schedule: Q01DX009 (ip), vehicle: saline 101 % of control and 107 % of control | endpoint: median survival time, dose: 10.0 mg/kg/injection, schedule: Q01DX009 (ip), vehicle: saline 97 % of control | endpoint: median survival time, dose: 25.0 mg/kg/injection, schedule: Q01DX020 (ip), vehicle: saline 101 % of control | endpoint: median survival time, dose: 50.0 mg/kg/injection, schedule: Q01DX020 (ip), vehicle: saline 109 % of control | endpoint: median survival time, dose: 50.0 mg/kg/injection, schedule: Q04DX002 (ip), vehicle: saline with Tween-80 111 % of control | endpoint: median survival time, dose: 100.0 mg/kg/injection, schedule: Q01DX009 (ip), vehicle: saline 113 % of control and 117 % of control | endpoint: median survival time, dose: 100.0 mg/kg/injection, schedule: Q01DX020 (ip), vehicle: saline 115 % of control | endpoint: median survival time, dose: 100.0 mg/kg/injection, schedule: Q04DX002 (ip), vehicle: saline with Tween-80 111 % of control | endpoint: median survival time, dose: 150.0 mg/kg/injection, schedule: Q01DX009 (ip), vehicle: saline 114 % of control | endpoint: median survival time, dose: 200.0 mg/kg/injection, schedule: Q01DX020 (ip), vehicle: saline 115 % of control | endpoint: median survival time, dose: 200.0 mg/kg/injection, schedule: Q04DX002 (ip), vehicle: saline with Tween-80 100 % of control | endpoint: median survival time, dose: 400.0 mg/kg/injection, schedule: Q01DX020 (ip), vehicle: saline 118 % of control | endpoint: median survival time, dose: 400.0 mg/kg/injection, schedule: Q04DX002 (ip), vehicle: saline with Tween-80 100 % of control | endpoint: median survival time, dose: 800.0 mg/kg/injection, schedule: Q01DX020 (ip), vehicle: saline 118 % of control

CCCCCCCCCCCCOC(=O)c1ccc([N+](=O)[O-])cc1
inactive: endpoint: mean survival time, dose: 100.0 mg/kg/injection, schedule: Q01DX001 (ip), vehicle: saline with Tween-80 94 % of control | endpoint: mean survival time, dose: 200.0 mg/kg/injection, schedule: Q01DX001 (ip), vehicle: saline with Tween-80 91 % of control | endpoint: mean survival time, dose: 400.0 mg/kg/injection, schedule: Q01DX001 (ip), vehicle: saline with Tween-80 91 % of control

CC([NH-])C([NH-])O.O=[N+]([O-])O.O=[N+]([O-])O.[Pt+2] (centres undefined)
active: endpoint: mean survival time, dose: 12.5 mg/kg/injection, schedule: Q04DX003 (ip), vehicle: saline 170 % of control | endpoint: mean survival time, dose: 25.0 mg/kg/injection, schedule: Q04DX003 (ip), vehicle: saline 158 % of control

COc1cc(C(C)c2cc3c(cc2OCCO)OCO3)cc(OC)c1OC (centres undefined)
inactive: endpoint: median survival time, dose: 25.0 mg/kg/injection, schedule: Q01DX009 (ip), vehicle: saline with Tween-80 96 % of control and 106 % of control | endpoint: median survival time, dose: 50.0 mg/kg/injection, schedule: Q01DX009 (ip), vehicle: saline with Tween-80 106 % of control and 109 % of control | endpoint: median survival time, dose: 100.0 mg/kg/injection, schedule: Q01DX009 (ip), vehicle: saline with Tween-80 106 % of control and 110 % of control

Nc1cc(C(=O)O)c(O)c(Cl)c1O
inactive: endpoint: mean survival time, dose: 12.5 mg/kg/injection, schedule: Q04DX002 (ip), vehicle: saline with Tween-80 93 % of control | endpoint: mean survival time, dose: 25.0 mg/kg/injection, schedule: Q04DX002 (ip), vehicle: saline with Tween-80 90 % of control | endpoint: mean survival time, dose: 50.0 mg/kg/injection, schedule: Q04DX002 (ip), vehicle: saline with Tween-80 97 % of control

Oc1ccccc1NC(=S)Nc1ccccc1
inactive: endpoint: mean survival time, dose: 100.0 mg/kg/injection, schedule: Q01DX001 (ip), vehicle: saline 102 % of control | endpoint: mean survival time, dose: 200.0 mg/kg/injection, schedule: Q01DX001 (ip), vehicle: saline 98 % of control | endpoint: mean survival time, dose: 400.0 mg/kg/injection, schedule: Q01DX001 (ip), vehicle: saline 100 % of control

FC(F)(F)c1ccc(Cl)c(N=C=S)c1
inactive: endpoint: mean survival time, dose: 100.0 mg/kg/injection, schedule: Q04DX002 (ip), vehicle: saline with Tween-80 104 % of control | endpoint: mean survival time, dose: 200.0 mg/kg/injection, schedule: Q04DX002 (ip), vehicle: saline with Tween-80 93 % of control

CN1CCN(Cc2nc3cccc4c3c([n+]2[O-])-c2ccccc2-4)CC1
inactive: endpoint: mean survival time, dose: 12.5 mg/kg/injection, schedule: Q01DX009 (ip), vehicle: saline with Tween-80 91 % of control and 97 % of control and 102 % of control | endpoint: mean survival time, dose: 25.0 mg/kg/injection, schedule: Q01DX009 (ip), vehicle: saline with Tween-80 96 % of control and 101 % of control and 102 % of control | [2] 94 % of control and 102 % of control and 103 % of control | [3] 117 % of control and 105 % of control and 108 % of control

N#C/C=C1\NC(=O)CS1
inactive: [3] 114 % of control | [1] 96 % of control | [4] 101 % of control | [5] 100 % of control | [6] 102 % of control

CC(Oc1ccccc1)C(=O)c1ccccc1 (centres undefined)
inactive: [3] 93 % of control | [1] 97 % of control | [4] 93 % of control | [5] 100 % of control | [7] 96 % of control | [6] 90 % of control

O=S(=O)(Oc1ccccc1)c1ccc(Cl)cc1
inactive: [3] 95 % of control | [1] 98 % of control | [4] 98 % of control | [5] 96 % of control | [7] 98 % of control | [6] 102 % of control

COC(Cn1cnc2c(N)ncnc21)OC
inactive: endpoint: mean survival time, dose: 100.0 mg/kg/injection, schedule: Q04DX003 (ip), vehicle: saline 110 % of control | endpoint: mean survival time, dose: 200.0 mg/kg/injection, schedule: Q04DX003 (ip), vehicle: saline 98 % of control | endpoint: mean survival time, dose: 400.0 mg/kg/injection, schedule: Q04DX003 (ip), vehicle: saline 112 % of control

Cc1cc[n+]([O-])c(N(C(=O)c2ccccc2)C(=O)c2ccccc2)c1
inactive: [3] 98 % of control | [1] 95 % of control | [4] 102 % of control | [5] 103 % of control | [7] 107 % of control | [6] 97 % of control

C#CCNC1=C(C)C(=O)C2=C(C1=O)[C@H](COC(N)=O)[C@]1(OC)[C@H]3[C@@H](CN21)N3C (some centres undefined)
inactive: endpoint: mean survival time, dose: 3.0 mg/kg/injection, schedule: Q01DX001 (ip), vehicle: distilled water + Tween-80 97 % of control | endpoint: mean survival time, dose: 6.0 mg/kg/injection, schedule: Q01DX001 (ip), vehicle: distilled water + Tween-80 95 % of control | endpoint: mean survival time, dose: 12.0 mg/kg/injection, schedule: Q01DX001 (ip), vehicle: distilled water + Tween-80 101 % of control | endpoint: mean survival time, dose: 24.0 mg/kg/injection, schedule: Q01DX001 (ip), vehicle: distilled water + Tween-80 110 % of control | endpoint: mean survival time, dose: 48.0 mg/kg/injection, schedule: Q01DX001 (ip), vehicle: distilled water + Tween-80 118 % of control

[Br][Pt+2][Br].[NH-]c1cccc(F)c1.[NH-]c1cccc(F)c1
inactive: endpoint: mean survival time, dose: 3.13 mg/kg/injection, schedule: Q04DX003 (ip), vehicle: distilled water + Tween-80 97 % of control | endpoint: mean survival time, dose: 6.25 mg/kg/injection, schedule: Q04DX003 (ip), vehicle: distilled water + Tween-80 103 % of control | endpoint: mean survival time, dose: 12.5 mg/kg/injection, schedule: Q04DX003 (ip), vehicle: distilled water + Tween-80 101 % of control | endpoint: mean survival time, dose: 25.0 mg/kg/injection, schedule: Q04DX003 (ip), vehicle: distilled water + Tween-80 104 % of control | endpoint: mean survival time, dose: 50.0 mg/kg/injection, schedule: Q04DX003 (ip), vehicle: distilled water + Tween-80 109 % of control | endpoint: mean survival time, dose: 100.0 mg/kg/injection, schedule: Q04DX003 (ip), vehicle: distilled water + Tween-80 107 % of control

Cc1ccc(NC(=O)N2CCCCC2C)cc1[N+](=O)[O-] (centres undefined)
inactive: [2] 102 % of control | [3] 94 % of control | [4] 102 % of control

CCC(C(=N)C#N)[N+](=O)[O-] (centres undefined)
inactive: endpoint: mean survival time, dose: 100.0 mg/kg/injection, schedule: Q04DX002 (ip), vehicle: saline 91 % of control | endpoint: mean survival time, dose: 200.0 mg/kg/injection, schedule: Q04DX002 (ip), vehicle: saline 95 % of control | endpoint: mean survival time, dose: 400.0 mg/kg/injection, schedule: Q04DX002 (ip), vehicle: saline 91 % of control

CCOC(=O)c1cnc2c(cnn2CC)c1N1CCCCC1
inactive: endpoint: mean survival time, dose: 100.0 mg/kg/injection, schedule: Q04DX003 (ip), vehicle: Klucel (hydroxypropylcellulose) (HPC) 89 % of control | endpoint: mean survival time, dose: 200.0 mg/kg/injection, schedule: Q04DX003 (ip), vehicle: Klucel (hydroxypropylcellulose) (HPC) 97 % of control

Source: PubChem BioAssay AID256 (DTP/NCI, 2004)
